Test results reported in patent publication US20130059818A1, “CARBOSILANE DENDRIMERS AND THE USE THEREOF AS ANTIVIRAL AGENTS” (UNIVERSIDAD DE ALCALA DE HENARES (UAH), priority 2010, published 2013).
Entries after “also recorded” stand apart in the source; their conditions may differ.

What was measured:
[1] = system: HIV (X4 and R5-tropic virus); assay: Inhibition of transcytosis through HEC-1A monolayer (transwell); format: cell-based
Procedure: To obtain a perfect monolayer of polarized epithelial cells, the HEC-1A were grown in complete medium on a permeable polycarbonate support of 0.4 μm pore (Costar, Cambridge, Mass.). Then, 2*10^5 cells by well were cultivated for 7 days, with media changes every 2-3 days. The dendrimer were added one hour prior to the infection. […] The viral concentration was quantified by ELISA.
To reproduce in the best possible way the role that the anionic dendrimer develop on the surface of the endometrium and to study the passage of virions through the mucosal stratified vaginal epithelium, we used transwell devices that recreate the phenomenon of transcytosis (transport of macromolecules from the extracellular space to another through the cytoplasm of a cell via an endocytic vesicle) due to the possibility of forming a perfect monolayer of adherent cells on the inside and collect information from the supernatants of the apical and basolateral side of the monolayer. […]

[2] = system: HEC-1A (human endometrial epithelial cells); assay: LDH assay in HEC-1A; format: cell-based
Source text: This technique (CytoTox 96® Non-Radioactive Cytotoxicity Assay) was used to test the damage in the cell membrane surface due to the presence of anionic peripheral groups of dendrimers. The lactate dehydrogenase (LDH) is an enzyme that is released into the cytoplasm due to cell lysis. The LDH assay, therefore, is a measure of membrane integrity, which is based on the oxidation of LDH to pyruvate and reduction of tetrazolium salts to formazan crystals by pyruvate.
1*10^5 cells/well were dispensed in 96-well plate round bottom in a volume of 100 μL of complete medium and the dendrimer was added in a volume of 100 μL, to obtain a final volume of 200 μL in the well. Controls: 1. 200 μL of complete medium without cells (background control), 2. 100 μL of cells+100 μL of complete medium, 3. 100 μL of cells+100 μL of Triton X-100 0.2% 4. 100 μL of cells+100 μL with the dendrimer to the desired concentration. Incubated in culture conditions during the first 24 h. Plate was centrifuged at 1500 rpm 10 minutes and removed 100 μL of supernatant, being careful not to take the cells. 100 μL of reaction mixture prepared at the time on the 100 μL was added of supernatant and incubated at room temperature for 30 minutes in darkness. Finally, measured at 490 nm and 690 nm reference. The cytotoxicity was obtained from the following formula: Cytotoxicity (%)=(4−2)/(3−2)*100 […]

[3] = system: X4 HIV NL4.3 and R5 HIV Bal; assay: CDi, CDm and macrophages pre-treatment; format: cell-based, HIV-1; settings: pretreated 1 h, 50 ng virus
Procedure: Once the cells were differentiated, they were washed twice with PBS and 2*10^5 CDi, 2*10^5 CDm and 10^5 macrophages were dispensed in 200 μL of complete medium in bottom p96 wells. The dendrimer were added one hour prior to the infection. After adding the viral particles (50 ng), they were incubated in culture conditions and after 3 hours the supernatant was retired and washed 4 times with PBS. The supernatant was collected after 4 days. The viral concentration was quantified by ELISA.

PBMC [4] = assay: MTT assay in PBMC; format: cell-based, human; settings: 10 μM
Procedure: (§1) This method was selected to analyze detrimental intracellular effects on mitochondria and metabolic activity. The colorimetric MTT test, based on the selective ability of viable cells to reduce MTT to purple formazan, relies on intact metabolic activity and is frequently used for cytotoxicity screening. […] The concentration of formazan was then determined spectrophotometrically in a plate reader at a wavelength of 570 nm (test) and 690 nm (reference). The spectrophotometer was calibrated to zero absorbance by using Optimem medium without cells. The percentage cell viability relative to control wells (cells with no dendrimer) was calculated by ([A]test/[A]control)T100. […]

[5] = system: HIV-1 NL4.3 (X4 tropic) and HIV-1 BaL (R5 tropic); assay: Action mechanism: virus treated with dendrimer before exposure to PBMC; format: cell-based; settings: 10 μM, 4 days of culture
Procedure: It was used for this experiment a 96 well plate of flat bottom with Poli-L-lysine (PLL, Sigma® covering the bottom of the well. For this purpose, 50 uL of PLL were incubated at 37° C. for one hour. After washing the wells three times with PBS, 4 ng of HIV were incubated overnight at 4° C., to ensure that the virus particles were adhered to the bottom of the well. Each well was washed three times with PBS to remove HIV not adhered to the plate and then each well was treated with different dendrimer concentrations for 1 h. Afterward, it was necessary to washed the product with PBS and PBMC previously stimulated were added. The supernatant of this cell culture was recovered after 4 days and p24 antigen was quantified by ELISA to assess the amount of HIV produced by the PBMC in different treatments. As positive control of lysis of the viral particles Triton x-100 (1%) was used.
After verifying the effectiveness of the dendrimer to block adherence and internalization of virus particles, we proceeded to try to understand the mechanism of action. To this end, we designed an experiment that consisted of exposing the viral particles to the presence of dendrimer, to then use this combination in stimulated PBMC cultures (prepared for the viral infection). […]

PBMC [6] = assay: Lymphoproliferative assay (BrdU incorporation); design: Mitogenic effect of dendrimer alone (BrdU incorporation): dose or concentration left out as unconfirmed
NF-kB (pNF-kB-luc) = assay: Transfection of Jurkat cells with pNF-kB-luc plasmid; format: cell-based
Procedure: Inflammation experiments: the experiments were conducted with transient transfection using plasmid indicators pTNF-luc and pNF-κB-luc containing 3 copies in tandem of site NF-κB of the promoter. The Jurkat cell line was nucleofected with the AMAXA nucleofector following the commercial house protocol “cell line nucleofector kit V” and the specific programme used in the X-005. Transfected cells were stimulated for 16 hours with the different stimuli that appear in the graphs (TNF-alpha, antibody monoclonal anti-TNF-alpha and different concentrations (5 and 10 micromolar) of the anionic sulfonate dendrimer). […] The amount of protein in 5 μl of lysed cell was measured by the method of BSA-BCA (Pierce, Rockford, USA). Once quantified, the values of all the samples were normalized to 20 micrograms to measure the luciferase activity for about 10 seconds in a luminometer 1450 Microbeta Luminiscence Counter (Walax, Trilux). Luciferasa activity of firefly values are expressed as induction with respect to cells control.
Jurkat cells were transfected with the pNF-kB-luc plasmid, they were cultivated in the presence of sulfonate (10 micromolar) for 16 hours and the luciferasa activity was measured. […] The results presented are expressed as standardized induction index with the values of cell controls without treatment control and it is a representative of three independent experiments.

HIV-1 NL4.3 = assay: PBMC pre-treatment / post-treatment infection inhibition; format: cell-based
Procedure: We used 2*10^5 stimulated PBMC cells dispensed in 200 μL of complete medium in round bottom wells of p96 plate. […] After this time, the wells were washed twice with PBS and were incubated in culture conditions. The viral concentration after 3 days was quantified by ELISA of p24.

[7] = system: TNF-alpha transcriptional activity (pTNF-luc); assay: Transfection of Jurkat cells with pTNF-luc plasmid; format: cell-based; settings: 5 and 10 micromolar, 16 hours, versus control cells without stimulating
Procedure: Inflammation experiments: the experiments were conducted with transient transfection using plasmid indicators pTNF-luc and pNF-κB-luc containing 3 copies in tandem of site NF-κB of the promoter. The Jurkat cell line was nucleofected with the AMAXA nucleofector following the commercial house protocol “cell line nucleofector kit V” and the specific programme used in the X-005. Transfected cells were stimulated for 16 hours with the different stimuli that appear in the graphs (TNF-alpha, antibody monoclonal anti-TNF-alpha and different concentrations (5 and 10 micromolar) of the anionic sulfonate dendrimer). After different treatments, the transfected cells were collected by centrifugation and lysed with commercial tampon lysis “Dual-luciferase Assay System Kit” (Promega), according to the manufacturer's recommendations. The amount of protein in 5 μl of lysed cell was measured by the method of BSA-BCA (Pierce, Rockford, USA). Once quantified, the values of all the samples were normalized to 20 micrograms to measure the luciferase activity for about 10 seconds in a luminometer 1450 Microbeta Luminiscence Counter (Walax, Trilux). Luciferasa activity of firefly values are expressed as induction with respect to cells control. […]

PBMC [8] = assay: LDH assay in PBMC; format: cell-based, human
Source text: This technique (CytoTox 96® Non-Radioactive Cytotoxicity Assay) was used to test the damage in the cell membrane surface due to the presence of anionic peripheral groups of dendrimers. The lactate dehydrogenase (LDH) is an enzyme that is released into the […] due to cell lysis. The LDH assay, therefore, is a measure of membrane integrity, which is based on the […] and reduction of tetrazolium salts to formazan crystals by […].
1*10^5 cells/well were dispensed in 96-well plate round bottom in a volume of 100 μL of complete medium and the dendrimer was added in a volume of 100 μL, to obtain a final volume of 200 μL in the well. Controls: 1. 200 μL of complete medium without cells (background control), 2. 100 μL of cells+100 μL of complete medium, 3. 100 μL of cells+100 μL of Triton X-100 0.2% 4. 100 μL of cells+100 μL with the dendrimer to the desired concentration. Incubated in culture conditions during the first 24 h. Plate was centrifuged at 1500 rpm 10 minutes and removed 100 μL of supernatant, being careful not to take the cells. 100 μL of reaction mixture prepared at the time on the 100 μL was added of supernatant and incubated at room temperature for 30 minutes in darkness. Finally, measured at 490 nm and 690 nm reference. The cytotoxicity was obtained from the following formula: Cytotoxicity (%)=(4−2)/(3−2)*100

[9] = system: HEC-1A (human endometrial epithelial cells); assay: MTT assay in HEC-1A; format: cell-based; settings: up to 10 μM, FIG. 13A
Procedure: as §1

## Cc1ccc(C(=O)Nc2ccc(S(=O)(=O)O)c3cc(S(=O)(=O)O)cc(S(=O)(=O)O)c23)cc1NC(=O)c1cccc(NC(=O)Nc2cccc(C(=O)Nc3cc(C(=O)Nc4ccc(S(=O)(=O)O)c5cc(S(=O)(=O)O)cc(S(=O)(=O)O)c45)ccc3C)c2)c1 [Suramin, reference compound]
[1]; 70 ng Bal virus, 1 h pretreatment, basolateral supernatant after 48 h, FIG. 20
  Reduction of passage of viral particles through the monolayer: lacks the inhibitory effect
[1]; R5-tropic virus, positive control
  Inhibitory effect on passage of viral particles through the monolayer: no inhibitory effect
[2]; after an hour of contact
  LDH release: did not show toxicity
[3]
  Decrease of p24 antigen in immature dendritic cells: significant

## G1-[Si(CH2)3N(CH2CH2SO3Na)2]8 [G2SF16]
PBMC [4]
  Mitochondrial activity (MTT): optimal mitochondrial activity
[5]
  HIV (p24) in supernatant of PBMC after virus treated with dendrimer: low prevalence of HIV
PBMC [6]; PBMC, 4 days
  Effect on mitogenic effect of PHA, treatment at the same time as PHA: slightly decreases the mitogenic effect
  Mitogenic effect of dendrimer alone (BrdU incorporation): no mitogenic effect
PBMC [6]; PHA for 3 days, then 4 days of treatment, FIG. 4B
  BrdU incorporation in PBMC previously stimulated with PHA: decrease in BrdU incorporation; also recorded: inhibits the mitogenic effect of PHA
[1]; 5 μM, both X4 and R5 virus, basolateral supernatant at 24 and 48 hours
  Reduction of passage of viral particles through the monolayer: 40%
[3]
  Decrease of p24 antigen in immature dendritic cells: significant
  p24 in the supernatant of macrophages: clear decrease of p24
NF-kB (pNF-kB-luc); 10 micromolar, 16 hours
  Activity of the pNF-kB-luc plasmid: decrease in the activity of the pNF-kB-luc plasmid; also recorded: decreases the transcriptional activity of NF-kappa
NF-kB (pNF-kB-luc); sulfonate + TNF-alpha
  Induction of NF-kB-luc by TNF-alpha: reversal of the induction of NF-kB-luc
HIV-1 NL4.3; PBMC infected first, then dendrimer
  Inhibition of infection, post-treatment: 60%
HIV-1 NL4.3; PBMC treated with dendrimer prior to infection by HIV-1 NL4.3
  Inhibition of infection, pre-treatment: 80%
[7]
  Promoter activity of the pTNF-luc plasmid: two to three times lower
PBMC [8]
  Damage to the cell membrane (LDH): low damage
PBMC [8]; 24 hours
  Concentration from which toxicity was presented (LDH): ≥ 10 µM

## ck-G1-[Si(CH2)4(N3C2H)CH2N(CH2CH2COONa)2]8 [G2CKCOO16]
[9]
  Cell viability (MTT toxicity curve): good cell viability

## ck-G1-[Si(CH2)4(N3C2H)CH2N(CH2PO(OMe)2)2]8 [G2CKP32]
[9]
  Cell viability (MTT toxicity curve): good cell viability

## dextran
[2]; 24 hours of treatment
  LDH in the supernatant with regard to the control: ~10%

## mannan [reference compound]
[3]
  Decrease of p24 antigen in immature dendritic cells: significant
